pKi: −log10 of the molar value. Where a SMILES comes first, the peptide text is derived from it. [ ]: non-standard residue; d: D form.
What was measured:
[1] = target: T1, PSD-95-PDZ2 (Homo sapiens, UniProt P78352, V178C); experiment: SPOT peptide array screening with TAMRA labelled PSD-95-PDZ2; format: binding; conditions: SPOT array, TAMRA labelled PSD-95-PDZ2-V178C, normalized to WT
T1 construct: screened with the TAMRA labelled PSD-95-PDZ2-V178C domain; 7xHis (N); made in house
Procedure, shortened: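 First, arrays were blocked 1 h and scanned to record background. Next, 50 nM labelled PDZ2-V178C in PBS pH 7.2 with 0.5% BSA bound for 1 h protected from light. Finally, after washes, 532 nm fluorescence was measured and background-corrected.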

[2] = target: T2, PSD-95-PDZ2 (Homo sapiens, UniProt P78352); experiment: Fluorescence polarization (FP) competition assay against cyclic nNOS TAMRA probe; format: binding; conditions: for Relative Ki (Ki mut/Ki WT): FP inhibition constant normalized to WT value
T2 construct: 7xHis (N); made in house; host or cells: Escherichia coli B21 pLys (for the mutants, 'as previously described')
Procedure: Fluorescence polarization (FP). FP assays were performed in a 384-well plate format. Fluorescence polarization was measured using a Safire 2 plate reader. The instrument Z-factor was optimized for each assay. The G-factor was calibrated to an initial milli polarization value of 20. The wavelength for the cyclic nNOS β-hairpin TAMRA probe was: ex: 530 nm and em: 580 nm. Every measurement was performed in NaPI 50 mM, 50 mM NaCl and 1% BSA at pH 7.2, 25° C. […] The curves were done in triplicates. Then, the polarization was fitted into a one-site binding model using Prism software 8.0 (GraphPad), from which the Kd can be measured. […] The mili polarization (mP) values were plotted as a function of peptide concentration and fitted to a sigmoidal dose-response curve using Prism software 8.0 (GraphPad). The Ki values were calculated according to Nikolovska-Coleska Z. et al.^40-41

Row | SMILES | Normalized SPOT fluorescence (Mut/WT) [1] | Relative Ki (Ki mut/Ki WT) [2] | pKi ([2]; FP competition, cyclic nNOS TAMRA probe, mean of triplicates, N.B. = not binding, read-out: Ki)
1 | CC[C@H](C)[C@@H]1NC(=O)[C@H]([C@@H](C)O)NC(=O)[C@H](CCCCN)NC(=O)[C@@H]2CCCN2C(=O)[C@H]([C@@H](C)O)NC(=O)CNC(=O)[C@H](CC(=O)O)NC(=O)[C@H](C)NC(=O)[C@H]([C@@H](C)O)NC(=O)[C@H](Cc2ccccc2)NC(=O)[C@H]([C@@H](C)O)NC(=O)[C@H]([C@@H](C)O)NC(=O)[C@H](CCC(=O)O)NC(=O)[C@H](CC(C)C)NC(=O)[C@H](Cc2c[nH]cn2)NC(=O)[C@H]([C@@H](C)O)NC(=O)[C@H](CCC(N)=O)NC(=O)CNC(=O)[C@H]2CCCN2C(=O)[C@H](CCC(N)=O)NC(=O)[C@H]([C@@H](C)O)NC(=O)[C@H](C(C)C)NC(=O)[C@H](CCCNC(=N)N)NC1=O [compound 63] (cyclo(THLETTFTADGTPKTIRVTQ[dP]GQ)) | 0.68 | 3.03 | 
2 | CC[C@H](C)[C@@H]1NC(=O)[C@H]([C@@H](C)O)NC(=O)[C@H](CCCCN)NC(=O)[C@@H]2CCCN2C(=O)[C@H]([C@@H](C)O)NC(=O)CNC(=O)[C@H](CC(=O)O)NC(=O)CNC(=O)[C@H](Cc2c[nH]cn2)NC(=O)[C@H](Cc2ccccc2)NC(=O)[C@H]([C@@H](C)O)NC(=O)[C@H]([C@@H](C)O)NC(=O)[C@H](CCC(=O)O)NC(=O)[C@H](CC(C)C)NC(=O)[C@H](Cc2c[nH]cn2)NC(=O)[C@H]([C@@H](C)O)NC(=O)[C@H](CCC(N)=O)NC(=O)CNC(=O)[C@H]2CCCN2C(=O)[C@H](CCC(N)=O)NC(=O)[C@H]([C@@H](C)O)NC(=O)[C@H](C(C)C)NC(=O)[C@H](CCCNC(=N)N)NC1=O [compound 20] (cyclo(THLETTFHGDGTPKTIRVTQ[dP]GQ)) | 1.49 | 1.32 | 5.70
3 | CC[C@H](C)[C@@H]1NC(=O)[C@H]([C@@H](C)O)NC(=O)[C@H](CCCCN)NC(=O)[C@@H]2CCCN2C(=O)[C@H]([C@@H](C)O)NC(=O)CNC(=O)[C@H](CC(=O)O)NC(=O)CNC(=O)[C@H]([C@@H](C)O)NC(=O)[C@H](Cc2ccccc2)NC(=O)[C@H]([C@@H](C)O)NC(=O)[C@H]([C@@H](C)O)NC(=O)[C@H](CCC(=O)O)NC(=O)[C@H](CC(C)C)NC(=O)[C@H](Cc2c[nH]cn2)NC(=O)[C@H]([C@@H](C)O)NC(=O)[C@H](CCC(N)=O)NC(=O)CNC(=O)[C@H]2CCCN2C(=O)[C@H](CCC(N)=O)NC(=O)[C@H](C)NC(=O)[C@H](C(C)C)NC(=O)[C@H](CCCNC(=N)N)NC1=O [compound 73] (cyclo(THLETTFTGDGTPKTIRVAQ[dP]GQ)) | 0.61 | 1.03 | 
4 | CC[C@H](C)[C@@H]1NC(=O)[C@H]([C@@H](C)O)NC(=O)[C@H](CCCCN)NC(=O)[C@@H]2CCCN2C(=O)[C@H]([C@@H](C)O)NC(=O)CNC(=O)[C@H](CC(=O)O)NC(=O)CNC(=O)[C@H](CCSC)NC(=O)[C@H](Cc2ccccc2)NC(=O)[C@H]([C@@H](C)O)NC(=O)[C@H]([C@@H](C)O)NC(=O)[C@H](CCC(=O)O)NC(=O)[C@H](CC(C)C)NC(=O)[C@H](Cc2c[nH]cn2)NC(=O)[C@H]([C@@H](C)O)NC(=O)[C@H](CCC(N)=O)NC(=O)CNC(=O)[C@H]2CCCN2C(=O)[C@H](CCC(N)=O)NC(=O)[C@H]([C@@H](C)O)NC(=O)[C@H](C(C)C)NC(=O)[C@H](CCCNC(=N)N)NC1=O [compound 37] | 2.00 | 2.51 | 
